Test results as given in ChEMBL document CHEMBL1129910, “Synthesis of an aminopropyl analog of the experimental anticancer drug tallimustine, and activation of its 4-nitrobenzylcarbamoyl prodrug by nitroreductase and NADH” (Bioorg Med Chem Lett, 1997).

Tests used:
Type in all cases: functional, cell-based
[1] = Cytotoxicity against the growth of […] human colon cancer cells was determined using sulforhodamine B assay in the presence of Nitroreductase+NADH; conditions: Cancer cell lines
[2] = Cytotoxicity against the growth of LS174T human colon cancer cells was determined using sulforhodamine B assay in the presence of Nitroreductase+NADH
[3] = Cytotoxicity against the growth of […] human colon cancer cells was determined using sulforhodamine B assay; conditions: Cancer cell lines
[4] = Cytotoxicity against the growth of LS174T human colon cancer cells was determined using sulforhodamine B assay

Row | SMILES | IC50 [1] [µM] | IC50 [2] [µM] | IC50 [3] [µM] | IC50 [4] [µM]
1 | Cn1cc(NC(=O)c2cc(NC(=O)c3cc(NC(=O)c4ccc(N(CCCl)CCCl)cc4)cn3C)cn2C)cc1C(=O)NCCCNC(=O)OCc1ccc([N+](=O)[O-])cc1 | 9.4 | 0.02 | 22.9 | 2.3
2 | Cn1cc(NC(=O)c2cc(NC(=O)c3cc(NC(=O)c4ccc(N(CCCl)CCCl)cc4)cn3C)cn2C)cc1C(=O)NCCCN |  |  | 10 | 0.02
